Experimental data from US20040038947A1, “Method of treating ischemia/reperfusion injury with nitroxyl donors” (The Gov. of the U.S. of America as represented by the Sec. …, priority 2002, published 2004).

What was measured:
[1] = tested on: Isolated rat hearts; test: Pre-ischemic cardiac function of isolated perfused rat hearts (Table 1); details: mean
Description: (§1) Isolated heart perfusion. Each animal was anesthetized with 1 g/kg urethane i.p. 10 min after heparin (2,500 U, i.m.) treatment. The chest was opened, and the heart was rapidly excised, placed in ice-cold buffer solution and weighed. Isolated rat hearts were attached to the perfusion apparatus and retrogradely perfused with oxygenated buffer solution at 37° C. The hearts were instrumented as previously described in Rastaldo et al., “P-450 metabolite of arachidonic acid mediates bradykinin-induced negative inotropic effect,” Am. J. Physiol., 280:H2823-H2832 (2001), and Paolocci et al. “cGMP-independent inotropic effects of nitric oxide and peroxynitrite donors: potential role for nitrosylation,” Am. J. Physiol., 279: H1982-H1988 (2000). The flow was maintained constant (9±2 mL/min/g wet weight) to reach a typical coronary perfusion pressure of 85-90 mm Hg. A constant proportion of 10% of the flow rate was applied by means of one of two perfusion pumps (Terumo, Tokyo, Japan) using a 50 mL syringe connected to the aortic cannula. Drug applications (see Experimental Protocols) were performed by switching from the syringe containing buffer alone to the syringe of the other pump containing the drug dissolved in the vehicle at a concentration 10× to the desired final concentration in the heart. A small hole in the left ventricular wall allowed drainage of the thebesian flow, and a polyvinyl-chloride balloon was placed into the left ventricle and connected to an electromanometer for recording of left ventricular pressure (LVP). The hearts were electrically paced at 280-300 bpm and kept in a temperature-controlled chamber (37° C.). Coronary perfusion pressure (CPP) and coronary flow were monitored with a second electromanometer and an electromagnetic flow-probe, respectively, both placed along the perfusion line. Left ventricular pressure, coronary flow and coronary perfusion pressure were recorded using a TEAC R-71 recorder, digitized at 1000 Hz and analyzed off-line with DataQ-Instruments/CODAS software, which allowed quantification of the maximum rate of increase of LVP during systole (dP/dtmax).
Hearts were perfused with Krebs-Henseleit solution gassed with 95% O2 and 5% CO2 of the following composition: 17.7 mM sodium bicarbonate, 127 mM NaCl, 5.1 mM KCl, 1.5 mM CaCl2, 1.26 mM MgCl2, 11 mM D-glucose, supplemented with 5 μg/mL lidocaine.
(§2) Experimental Protocols. Hearts were allowed to stabilize for 30 min, and baseline parameters were recorded. Typically, coronary flow was adjusted within the first 10 min and kept constant from thereon. After 30 min stabilization, hearts were randomly assigned to one of the treatment groups reported below (n=12 in each group), and then subjected to 30 min global, no-flow ischemia, followed by 30 min of reperfusion (I/R) (see FIG. 1). Pacing of the hearts was stopped at the beginning of the ischemic period and restarted after the third minute of reperfusion.
(§3) Hearts in the control group (Group 1) were perfused with buffer for an additional 29 min after stabilization. Group 2 hearts were exposed to AS (1 μM final concentration) for 19 min followed by a 10 min buffer wash-out period. Group 3 hearts were exposed to DEA/NO (0.5 μM final concentration) administered in the same manner as AS. The concentration of DEA/NO was only one half of that of AS since DEA/NO releases up to two moles of […] per mole of donor molecule. In Group 4, a train of three cycles of 3 min global ischemia followed by 5 min of reperfusion was applied after the stabilization phase, followed by a final 10 min buffer wash-out period (IPC protocol).
Group 5 hearts were exposed to the vehicle (NaOH, final concentration 100 nM) used to dissolve both AS and DEA/NO. To test the influence of switching the myocardial redox state on AS-induced effects, in an additional group of hearts (Group 6) AS was co-infused with N-acetyl-L-cysteine (NAC, 4 mM final concentration). For comparison, hearts were also exposed to NAC alone (Group 7). […]

[2] = tested on: Isolated rat hearts; test: Ventricular function (contracture, contractile recovery) of isolated rat hearts in 30 min global ischemia / 30 min reperfusion
Description: as §1, §2, §3
Group 5 hearts were exposed to the vehicle (NaOH, final concentration 100 nM) used to dissolve both AS and DEA/NO. […]

[3] = tested on: Isolated rat hearts; test: Myocardial injury: LDH release in coronary effluent during reperfusion; details: pre-treatment; control 686±14 U/g wet wt; FIG. 4A
Description: as §2
Hearts in the control group (Group 1) were perfused with buffer for an additional 29 min after stabilization. Group 2 hearts were exposed to AS (1 μM final concentration) for 19 min followed by a 10 min buffer wash-out period. Group 3 hearts were exposed to DEA/NO (0.5 μM final concentration) administered in the same manner as AS. The concentration of DEA/NO was only one half of that of AS since DEA/NO releases up to two moles of […] per mole of donor molecule. […]
Assessment of myocardial injury. […] LDH release was measured as previously described by Bergmeyer & Bernt, “Methods of Enzymatic Analysis,” Verlag Chemie (1974). Data are expressed as cumulative values for the entire reflow period.

[4] = tested on: anesthetized rabbits; details: administered during ischemia and 5 minutes prior to reperfusion; cited from earlier work
[5] = tested on: rat renal tissue; details: administered during ischemia and 5 minutes before reperfusion; rat kidney; cited from earlier work
[6] = End of stabilization period (baseline of the group, before treatment)
[7] = Post-treatment (pre-ischemic), AS 1 μM, DEA/NO 0.5 μM, NAC 4 mM, 19 min then 10 min wash-out

SMILES: [Na+].[Na+].[O-][N+]([O-])=NO [AS, sodium trioxodinitrate]
- CPP (coronary perfusion pressure) [1, 6]: 89 mmHg
- DP/dtmax [1, 6]: 3145 mmHg/s
- Developed LVP [1, 6]: 99 mmHg
- LVEDP (left ventricular end-diastolic pressure) [1, 6]: 9 mmHg
- CPP (coronary perfusion pressure) [1, 7]: 88 mmHg
- DP/dtmax [1, 7]: 3223 mmHg/s
- Developed LVP [1, 7]: 98 mmHg
- LVEDP (left ventricular end-diastolic pressure) [1, 7]: 10 mmHg
- Post-ischemic recovery of developed LVP ([2]; 30 min ischemia, 30 min reperfusion, vs pre-ischemic value, controls 38%, AS 1 μM pre-ischemic, FIG. 3A): about 55%
- Post-ischemic recovery of dP/dtmax ([2]; 30 min ischemia, 30 min reperfusion, vs pre-ischemic value, controls 39%, AS 1 μM pre-ischemic, FIG. 3B): 57%
- Maximal increment of LVEDP during reperfusion ([2]; compared to control, vehicle, NAC and NAC+AS treated hearts (p<0.05), FIG. 2B): significantly lower
- LDH release into the coronary venous effluent during reperfusion [3]: significantly reduced
- Effect on myocardial ischemia/reperfusion injury [4]: increased myocardial ischemia/reperfusion injury
- Effect on neutrophil infiltration into renal tissue [5]: contributed to neutrophil infiltration into the tissue
